Test results taken from patent US8530525B2 (priority 2009, dated 2013).
pIC50: −log10 of the molar value.

Assays:
α7 neuronal nAChR = α7 neuronal nAChR (Homo sapiens, UniProt P36544); conditions: cited from earlier work
α3β4 = α3β4 (Homo sapiens, UniProt P30926+P32297); conditions: cited from earlier work
[1] = in vivo; cited from earlier work
[2] = system: population spikes (PS) recorded from the CA1 area of the rat hippocampal slice; type: cell-based
[3] = system: population spikes (PS) of the hippocampal slice

α7 neuronal nAChR, sequence (P36544 23-502): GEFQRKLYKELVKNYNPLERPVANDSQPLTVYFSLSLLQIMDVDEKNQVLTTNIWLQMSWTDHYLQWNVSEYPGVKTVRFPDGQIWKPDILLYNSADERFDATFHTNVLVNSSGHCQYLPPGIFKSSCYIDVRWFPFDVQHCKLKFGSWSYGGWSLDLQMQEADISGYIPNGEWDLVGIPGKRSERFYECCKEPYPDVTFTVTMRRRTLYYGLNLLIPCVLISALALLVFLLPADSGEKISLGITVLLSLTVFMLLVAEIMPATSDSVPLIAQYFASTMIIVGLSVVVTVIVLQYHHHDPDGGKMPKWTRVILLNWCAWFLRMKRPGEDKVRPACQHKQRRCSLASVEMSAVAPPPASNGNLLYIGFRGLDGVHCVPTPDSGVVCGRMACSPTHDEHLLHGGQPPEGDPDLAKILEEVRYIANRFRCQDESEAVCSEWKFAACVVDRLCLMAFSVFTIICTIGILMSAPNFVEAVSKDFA
α3β4, sequence (P32297 32-505): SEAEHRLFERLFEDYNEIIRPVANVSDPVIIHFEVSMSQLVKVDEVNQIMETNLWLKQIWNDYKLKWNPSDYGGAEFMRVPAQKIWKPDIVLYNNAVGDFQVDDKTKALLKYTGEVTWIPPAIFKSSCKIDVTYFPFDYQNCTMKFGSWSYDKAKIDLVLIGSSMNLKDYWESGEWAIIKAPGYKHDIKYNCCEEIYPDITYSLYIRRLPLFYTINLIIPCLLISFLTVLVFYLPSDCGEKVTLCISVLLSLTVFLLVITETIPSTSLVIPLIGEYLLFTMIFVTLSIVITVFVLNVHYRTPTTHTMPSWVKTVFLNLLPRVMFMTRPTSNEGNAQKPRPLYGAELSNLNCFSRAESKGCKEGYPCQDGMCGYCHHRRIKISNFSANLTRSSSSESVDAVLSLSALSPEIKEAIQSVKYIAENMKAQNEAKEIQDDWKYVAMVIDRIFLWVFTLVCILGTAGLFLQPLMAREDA
α3β4, sequence (P30926 22-498): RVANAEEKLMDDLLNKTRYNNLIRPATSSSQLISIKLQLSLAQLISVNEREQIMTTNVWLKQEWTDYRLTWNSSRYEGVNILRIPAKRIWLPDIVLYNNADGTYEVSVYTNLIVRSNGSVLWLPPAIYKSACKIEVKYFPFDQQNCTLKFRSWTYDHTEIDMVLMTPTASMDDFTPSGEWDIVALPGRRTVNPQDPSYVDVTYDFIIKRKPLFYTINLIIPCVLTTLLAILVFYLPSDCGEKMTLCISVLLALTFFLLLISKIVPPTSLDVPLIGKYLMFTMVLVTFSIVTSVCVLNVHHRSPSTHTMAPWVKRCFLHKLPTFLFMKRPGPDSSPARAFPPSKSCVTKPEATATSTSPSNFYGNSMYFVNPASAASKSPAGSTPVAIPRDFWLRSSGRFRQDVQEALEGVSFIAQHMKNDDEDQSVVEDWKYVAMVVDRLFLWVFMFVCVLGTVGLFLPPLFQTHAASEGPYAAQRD

For `CC1=CC(O)CC(C)(O)C=CC(C(C)C)CCC(C)=CCC1` [4R cembranoid, (1S,2E,4R,6R,7E,11E)-cembra-2,7,11-triene-4,6-diol], the “Antagonism of α7 neuronal nAChR” value (α7 neuronal nAChR) is given as “subtype selective antagonist”, the “Activity at α3β4 subtypes” value (α3β4) is given as “little activity” and the Brain penetration [1] is given as “readily penetrates into the brain”. The Metabolism and excretion [1] was “promptly metabolized in the liver and excreted as a soluble metabolite”.
With `CCOP(=O)(OCC)Oc1ccc([N+](=O)[O-])cc1` [POX, paraoxon] the “Maximum inhibition of the PS” value [2] was ~50% and the pIC50 ([2]; read-out: POX IC50 for inhibition of PS) was ~6.00.
For `CN1[C@@H]2CC[C@H]1C[C@@H](OC(=O)C(CO)c1ccccc1)C2` (stereo partly shown) [atropine], the “Effect on PS area” value [3] was “did not affect PS area”.
